Earlier results as cited in US20260114445A1, “STABLE ANTIMICROBIAL FORMULATION CONCENTRATE” (Kimberly-Clark Worldwide, Inc., priority 2020, published 2026).

Conditions: temperature not given

CCCCCCCC(=O)NO [Caprylhydroxamic Acid]
water solubility: approximately 0.14%
